Where a name gives a salt, the structure may show the parent alone.

The values below come from patent US20230414575A1, “MK2 ACTIVATING COMPOUNDS FOR USE IN TREATING VASCULAR LEAK AND ENDOTHELIAL BARRIER DISORDERS” (Akttyva Therapeutics, Inc., priority 2020, published 2023).

Assay [1] addresses T1, MK2 (Rattus norvegicus, UniProt Q80ZF4).
T1 construct: endogenous in cells; host or cells: rat microvascular endothelial cells (RMVEC)
Description: ELISA MK2 cell-based activity assay (phospho-HSP-27), RMVEC cells. Conditions: compound 20 μM, 30 minutes, 37° C.; for Average Response HSP27: phospho-HSP27 ELISA. How it is done:
(§1) The MK2 activator candidates, identified using the artificial intelligence (AI)-assisted docking approach, were tested in activity assays for lead selection against the MK2 target. MK2 activation was assessed using (a) a cell-based assay using rat microvascular endothelial cells (RMVEC) and (b) human cancer skin fibroblast cells (Malme-3M). In both assays, an Enzyme-linked ImmunoSorbent Assay (ELISA) technique was used to measure (HSP-27) phosphorylation (DYC2314-2, R&D Systems). Both cell lines were grown to confluency in a 96-well tissue culture plate and treated at 37° C. for 30 minutes with the test compounds at concentrations of 20 μM. The cells were subsequently lysed with a lysis solution containing 0.5% Triton X-100 and anti-proteolysis agents. The resulting lysates were then loaded onto ELISA plates coated with anti-rat phospho-HSP27. After incubation and washing, the plates were treated with an horseradish peroxidase (HRP)-conjugated anti-phospho-HSP27 secondary antibody and then measured for chemiluminescence. Higher activity compounds, acting on MK2, induced higher levels of HSP-27 phosphorylation, as measured by the ELISA.
(In general: An ELISA detects its analyte on a solid surface through an enzyme-linked reagent.)

The target in assay [2] is T2, MK2 (Homo sapiens, UniProt P49137).
T2 construct: endogenous in cells; host or cells: Malme-3M
T2 sequence (P49137 whole entry): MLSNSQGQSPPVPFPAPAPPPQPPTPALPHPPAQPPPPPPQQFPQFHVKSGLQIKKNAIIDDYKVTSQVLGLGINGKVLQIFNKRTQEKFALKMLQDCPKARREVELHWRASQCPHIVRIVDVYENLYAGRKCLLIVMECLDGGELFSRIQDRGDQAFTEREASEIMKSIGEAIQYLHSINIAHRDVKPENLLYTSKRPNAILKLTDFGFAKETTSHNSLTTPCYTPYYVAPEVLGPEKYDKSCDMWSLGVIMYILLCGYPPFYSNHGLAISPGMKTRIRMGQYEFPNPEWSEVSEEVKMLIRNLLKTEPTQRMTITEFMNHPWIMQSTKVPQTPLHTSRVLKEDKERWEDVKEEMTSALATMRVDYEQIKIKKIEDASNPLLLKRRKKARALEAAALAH
The assay can be described thus: ELISA MK2 cell-based activity assay (phospho-HSP-27), Malme-3M cells. Conditions: for Ratio to Control / Pho-HSP27: Malme-3M cells, compound 20 μM, 30 minutes, 37° C.; for Pho-HSP27: phospho-HSP27 ELISA. How it is done: as §1

T1 sequence (Q80ZF4 1-386): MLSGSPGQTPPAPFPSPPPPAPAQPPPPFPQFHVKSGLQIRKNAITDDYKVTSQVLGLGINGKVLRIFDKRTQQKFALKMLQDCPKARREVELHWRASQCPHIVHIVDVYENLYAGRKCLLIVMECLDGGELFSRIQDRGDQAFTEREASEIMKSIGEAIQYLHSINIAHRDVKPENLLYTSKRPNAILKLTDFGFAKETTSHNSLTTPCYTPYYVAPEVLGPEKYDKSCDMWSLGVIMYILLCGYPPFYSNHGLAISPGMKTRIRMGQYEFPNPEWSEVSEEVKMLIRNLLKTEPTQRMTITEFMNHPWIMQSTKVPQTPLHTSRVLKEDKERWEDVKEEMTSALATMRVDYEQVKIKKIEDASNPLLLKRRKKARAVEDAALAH

As to `Cl.Cl.OCCN1CCN(CCC=C2c3ccccc3Sc3ccc(C(F)(F)F)cc32)CC1` (mixture of isomers) [Flupenthixol dihydrochloride], at MK2 [1], the “Ratio Compound/control” value was 1.1 and the “Average Response HSP27” value turned out to be 10.4 pg/mL.
The like results for `c1cc(OCCN2CCCCC2)cc(-c2n[nH]c3ccc(-c4nc[nH]n4)cc23)c1` [CC-401 Hydrochloride] were, in that order, 0.9 and 6.3 pg/mL.
The like results for `Cc1ccccc1-c1cc(N2CCN(C)CC2)ncc1N(C)C(=O)C(C)(C)c1cc(C(F)(F)F)cc(C(F)(F)F)c1` [Compound 9, Netupitant] were, in that order, 0.7 and 2.7 pg/mL.
For `Cc1nc2n(c(=O)c1CCN1CCC(c3noc4cc(F)ccc34)CC1)CCCC2O` (centres unmarked) [Compound 20, Paliperidone] the same measures were 1.1 and 4.3 pg/mL.
Consider `O=C1[C@H]2CCCC[C@H]2C(=O)N1CCCCN1CCN(c2nsc3ccccc23)CC1` [Compound 23, Perospirone], for which, at MK2 [2], the “Ratio to Control” value was 32.0 and the Pho-HSP27 worked out at 720.7 pg/mL. Besides, the “response in phospho-HSP27 ELISA, overall ranking” value on MK2 [2] (overall statement on compounds tested at 20 μM (Malme-3M and RMVEC cells)) is on record as “most robust response”.
Take `O=C1Cc2cc(CCN3CCN(c4nsc5ccccc45)CC3)c(Cl)cc2N1` [Compound 24, Ziprasidone]: on MK2 [2], the “Ratio to Control” value was determined as 1.6 and the Pho-HSP27 is 35.4 pg/mL.
Take `COc1cc2ncnc(Oc3cccc(NC(=O)Nc4cc(C(C)(C)C(F)(F)F)on4)c3)c2cc1OC` [Compound 27, Cep-32496]: on MK2 [1], the “Ratio Compound/control” value was 0.9 and the “Average Response HSP27” value amounted to 6.2 pg/mL.
For `CCn1cc(-c2ccnc3[nH]c(-c4cccc(CN(C)C)c4)cc23)c(-c2ccc(NC(=O)N(C)C)cc2)n1` [Compound 28, Gsk-1070916], at MK2 [1], the “Ratio Compound/control” value was 0.2 and the “Average Response HSP27” value was 0.9 pg/mL.
The like results for `Cn1cc(-c2ccc(F)c(C(F)(F)F)c2)nc1C1CCN(c2ncnc3[nH]ncc23)CC1` [Compound 30, Ly-2584702] were, in that order, 0.3 and 0.0 pg/mL.
For the compound `Cc1nc(Nc2[nH]nc3c2CN(C(=O)N[C@H](CN(C)C)c2ccccc2)C3(C)C)c2sccc2n1` [Compound 39, Pf-03758309], on MK2 [1], the “Ratio Compound/control” value is 1.0 and the “Average Response HSP27” value turned out to be 4.8 pg/mL.
For `CC(C)c1cc(CNc2nc(Nc3cc(C4CC4)[nH]n3)cc(N3CCN(C)CC3)n2)on1` [Compound 43, Xl-228], at MK2 [1], the “Ratio Compound/control” value is 0.4 and the “Average Response HSP27” value amounted to 5.7 pg/mL.
For `CC(=O)N1CCN(CCOc2ccc(C3CCN(C4=Nn5c(nnc5C(F)(F)F)CC4)CC3)cc2)CC1` [Compound 44, Azd3514] the same measures were 0.9 and 5.9 pg/mL.
Regarding `CCS(=O)(=O)c1cccc(-c2cc(C(=O)NC3CCN(C)CC3)c(C)c3[nH]c4ncc(C)cc4c23)c1` [Compound 46, Tak-901], on MK2 [1], the “Ratio Compound/control” value worked out at 0.2 and the “Average Response HSP27” value was -0.2 pg/mL.
The like results for `Cn1c(Nc2ccc(C(F)(F)F)cc2)nc2cc(Oc3ccnc(-c4ncc(C(F)(F)F)[nH]4)c3)ccc21` [Compound 47, Chir-265] were, in that order, 0.9 and 8.5 pg/mL.
Turning to `Cc1c(NC(=O)OC[C@@H]2COCCN2)cn2ncnc(Nc3ccc4c(cnn4Cc4cccc(F)c4)c3)c12` [Compound 49, Ac-480], on MK2 [1], the “Ratio Compound/control” value came out at 1.3 and the “Average Response HSP27” value is on record as 12.1 pg/mL.
The like results for `CCN1CCN(Cc2ccc(NC(=O)Nc3ccc(Oc4cc(NC)ncn4)cc3)cc2C(F)(F)F)CC1` [Compound 55, Ast-487] were, in that order, 1.3 and 9.0 pg/mL.
The like results for `Cc1cc(Nc2cc(N3CCN(C)CC3)nc(/C=C/c3ccccc3)n2)n[nH]1` [Compound 56, Enmd-2076] were, in that order, 0.3 and 4.6 pg/mL.
The like results for `CNCc1ccc(C)c(NC(=O)c2ccc(Nc3nc(-c4ccccc4)c4ccccc4n3)cc2)c1` [Compound 57, Bms - 833923] were, in that order, 1.3 and 8.8 pg/mL.
Turning to `Cc1oncc1C(=O)Nc1ccc(C(F)(F)F)cc1` [Compound 72, Leflunomide], at MK2 [1], the “Ratio Compound/control” value is 1.3 and the “Average Response HSP27” value came out at 5.2 pg/mL.
For `CCc1cc(/C(C)=N/OCc2ccc(C3CCCCC3)c(C(F)(F)F)c2)ccc1CN1CC(C(=O)O)C1` [Compound 76, Siponimod] the same measures were 1.0 and 6.6 pg/mL.
The like results for `COCCOc1ccc(N2CCN(CCn3ncc4c3nc(N)n3nc(-c5ccco5)nc43)CC2)cc1` [Compound 106, Preladenant] were, in that order, 0.9 and 4.2 pg/mL.
`CC(C)Nc1cccnc1N1CCN(C(=O)c2cc3cc(NS(C)(=O)=O)ccc3[nH]2)CC1` [Compound 108, Delavirdine]: at MK2 [2], the “Ratio to Control” value amounted to 0.8 and the Pho-HSP27 turned out to be 17.3 pg/mL.
Take `NC(=O)[C@@H](CCC(F)(F)F)N(Cc1ccc(-c2ncon2)cc1F)S(=O)(=O)c1ccc(Cl)cc1` [Compound 115, Avagacestat]: at MK2 [1], the “Ratio Compound/control” value came out at 0.8 and the “Average Response HSP27” value came out at 5.7 pg/mL.
In the case of `OCC(O)CN1CCN(c2ccccc2)CC1` (centres unmarked) [Dropropizine], on MK2 [1], the “Ratio Compound/control” value turned out to be 0.1 and the “Average Response HSP27” value is 1.2 pg/mL.
The like results for `O=C(Nc1cccc(C2=NCCN2)c1)Nc1cccc(C2=NCCN2)c1` [Imidocarb dipropionate] were, in that order, 1.3 and 11.7 pg/mL.
For `N=C(N)c1ccc2cc(OC(=O)c3ccc(N=C(N)N)cc3)ccc2c1` [Nafamostat Mesylate] the same measures were 1.3 and 11.7 pg/mL.
The like results for `O=C1[C@H]2CCCC[C@H]2C(=O)N1CCCCN1CCN(c2nsc3ccccc23)CC1` [Perospirone hydrochloride] were, in that order, 2.2 and 43.2 pg/mL.
Consider `Cc1cc(N2CCN([C@@H]3CN[C@H](C(=O)N4CCSC4)C3)CC2)n(-c2ccccc2)n1` [Teneligliptin hydrobromide], for which, at MK2 [1], the “Ratio Compound/control” value is 0.8 and the “Average Response HSP27” value stood at 4.0 pg/mL.
Take `O=C1Cc2cc(CCN3CCN(c4nsc5ccccc45)CC3)c(Cl)cc2N1` [Ziprasidone HCl]: at MK2 [1], the “Ratio Compound/control” value came out at 1.5 and the “Average Response HSP27” value is listed as 32.3 pg/mL.
For `Cl.Cl.Cl.O[C@@H](COc1cccc2ncccc12)CN1CCN([C@@H]2c3ccccc3[C@@H]3[C@H](c4ccccc42)C3(F)F)CC1` [Zosuquidar (LY335979) 3HCl] the same measures were 0.7 and 11.8 pg/mL.
The like results for Delavirdine (mesylate) were, in that order, 1.1 and 18.4 pg/mL.
With “MK2-AP (batch#2): presumably the positively charged MK2-activating peptide YARAAARQARAHPRNPARRTPGTRRGAPAA (SEQ ID NO: 7) (MK2 peptide fragment)”, in the assay with MK2 [1], the “Ratio Compound/control” value is on record as 2.7 and the “Average Response HSP27” value turned out to be 11.7 pg/mL.
